Source: patent US20240343706A1, “PIPERIDINE-2,6-DIONE DERIVATIVES WHICH BIND TO CEREBLON, AND METHODS OF USE THEREOF” (Captor Therapeutics S.A., priority 2019, published 2024)
Values belong to the molecule of their own block, whether it stands above or below them.

What was measured:
[1] = molecular target: CRBN-DDB1 protein complex (Homo sapiens, UniProt Q96SW2); test: Fluorescence polarization (FP) assay, displacement of Cy5-labelled thalidomide; conditions: 25 nM CRBN-DDB1, 5 nM Cy5-labelled thalidomide, read-out: CRBN binding Ki
CRBN-DDB1 protein complex, sequence (Q96SW2 whole entry): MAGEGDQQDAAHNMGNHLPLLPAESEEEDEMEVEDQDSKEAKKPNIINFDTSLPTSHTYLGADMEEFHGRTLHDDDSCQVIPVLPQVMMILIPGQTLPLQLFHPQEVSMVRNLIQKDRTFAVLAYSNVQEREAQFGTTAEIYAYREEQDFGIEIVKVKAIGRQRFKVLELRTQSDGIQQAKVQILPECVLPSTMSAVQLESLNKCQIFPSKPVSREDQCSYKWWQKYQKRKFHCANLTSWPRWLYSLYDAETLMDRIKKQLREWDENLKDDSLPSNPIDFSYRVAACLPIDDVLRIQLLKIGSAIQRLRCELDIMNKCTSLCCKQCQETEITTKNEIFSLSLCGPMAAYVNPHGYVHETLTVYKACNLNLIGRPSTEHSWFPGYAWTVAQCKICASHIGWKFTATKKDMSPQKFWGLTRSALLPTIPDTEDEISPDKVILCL
CRBN-DDB1 protein complex, sequence (Q16531 whole entry partner): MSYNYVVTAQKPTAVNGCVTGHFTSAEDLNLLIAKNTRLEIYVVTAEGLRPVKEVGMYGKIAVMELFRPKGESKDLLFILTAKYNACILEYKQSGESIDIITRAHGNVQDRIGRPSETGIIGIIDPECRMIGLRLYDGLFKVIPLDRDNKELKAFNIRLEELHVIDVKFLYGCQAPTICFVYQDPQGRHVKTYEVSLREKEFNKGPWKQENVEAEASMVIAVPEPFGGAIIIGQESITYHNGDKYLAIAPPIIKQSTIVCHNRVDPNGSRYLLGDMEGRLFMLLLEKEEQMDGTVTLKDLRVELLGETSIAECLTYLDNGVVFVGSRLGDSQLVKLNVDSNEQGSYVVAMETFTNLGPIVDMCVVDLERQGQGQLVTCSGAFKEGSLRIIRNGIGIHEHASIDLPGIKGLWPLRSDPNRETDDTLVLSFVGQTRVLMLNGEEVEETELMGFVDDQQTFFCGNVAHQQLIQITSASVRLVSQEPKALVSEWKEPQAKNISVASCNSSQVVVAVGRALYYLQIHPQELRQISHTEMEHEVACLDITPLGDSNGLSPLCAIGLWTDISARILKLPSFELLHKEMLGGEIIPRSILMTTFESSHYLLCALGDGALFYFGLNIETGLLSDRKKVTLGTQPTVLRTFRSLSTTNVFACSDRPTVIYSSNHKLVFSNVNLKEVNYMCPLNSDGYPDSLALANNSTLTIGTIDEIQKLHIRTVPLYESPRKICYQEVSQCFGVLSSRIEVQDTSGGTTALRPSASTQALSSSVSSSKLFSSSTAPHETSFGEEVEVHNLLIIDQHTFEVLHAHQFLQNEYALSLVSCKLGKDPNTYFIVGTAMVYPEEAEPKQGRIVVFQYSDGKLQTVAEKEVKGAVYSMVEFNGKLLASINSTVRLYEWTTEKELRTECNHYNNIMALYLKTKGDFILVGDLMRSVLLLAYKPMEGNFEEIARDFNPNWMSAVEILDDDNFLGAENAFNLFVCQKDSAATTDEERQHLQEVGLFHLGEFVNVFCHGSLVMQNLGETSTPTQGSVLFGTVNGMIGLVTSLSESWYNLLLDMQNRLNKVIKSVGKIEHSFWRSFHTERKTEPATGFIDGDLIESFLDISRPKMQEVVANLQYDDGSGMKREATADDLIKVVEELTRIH
Description: CRBN-DDB1 protein complex was mixed with Cy5-labelled thalidomide and a compound to be tested (the “test compound”). […] The test solution was added to a 384-well assay plate.
The plate was spun-down (1 min, 1000 rpm, 22° C.) and then shaken using a VibroTurbulator for 10 min at room temperature (20-25° C.), with the frequency set to level 3. The assay plate with protein and the tracer was incubated for 60 min at room temperature (20-25° C.) prior to read-out with a plate reader.
The FP experiment was carried out with various concentrations of the test compounds in order to measure Ki values.

IKZF1 = IKZF1 degradation assay, H929 cell line (western blot densitometry); type: cell-based; conditions: H929 cells; for % of protein reduction based on densitometry values, IKZF 1 (24 H): summary Table 10, 20 μM (some compounds 10 and 20 μM)
From the text: (§1) After primary and secondary Ab staining, the membranes were washed and signals developed. The densitometry analysis was implemented to obtain the numeric values used later in the protein level evaluation process.

CK1α = CK1α degradation assay, Kelly cell line (western blot densitometry); type: cell-based; conditions: summary Table 10; Kelly cells, 24 H; 20 μM (some compounds 10 and 20 μM)
From the text: as §1

SALL4 = SALL4 degradation assay, Kelly cell line (western blot densitometry); type: cell-based; conditions: summary Table 10; Kelly cells, 24 H; 20 μM (some compounds 10 and 20 μM)
From the text: as §1

IKZF3 = IKZF3 degradation assay, H929 cell line (western blot densitometry); type: cell-based; conditions: H929 cells

SMILES: O=C1CCC(NC(=O)c2ccnc3[nH]cnc23)C(=O)N1 (stereo not drawn) [Compound 9, N-(2,6-dioxopiperidin-3-yl)-3H-imidazo[4,5-b]pyridine-7-carboxamide]
Ki [1]: 1 to 10 µM

SMILES: O=C1CCC(NC(=O)c2cncc3[nH]cnc23)C(=O)N1 (stereo not drawn) [Compound 10, N-(2,6-dioxopiperidin-3-yl)-3H-imidazo[4,5-c]pyridine-7-carboxamide]
Ki [1]: 1 to 10 µM

SMILES: O=C1CCC(NC(=O)c2cccc3[nH]c(=O)[nH]c23)C(=O)N1 (stereo not drawn) [Compound 3, N-(2,6-dioxopiperidin-3-yl)-2-oxo-2,3-dihydro-1H-benzo[d]imidazole-4-carboxamide]
% of protein reduction based on densitometry values, IKZF 1 (24 H) (IKZF1): ≤25% (≤25% for 0-25% of IKZF1 protein reduction)
% of protein reduction based on densitometry values, CK1α (24 H) (CK1α): ≤25% (≤25% for 0-25% of CK1a protein reduction)
% of protein reduction based on densitometry values, SALL4 (24 H) (SALL4): ≤25% (≤25% for 0-25% of SALL4 protein reduction)

SMILES: O=C1CCC(NC(=O)c2cccc3nc[nH]c23)C(=O)N1 (stereo not drawn) [Compound 2, N-(2,6-dioxopiperidin-3-yl)-1H-1,3-benzodiazole-7-carboxamide]
Ki [1]: 1 to 10 µM

SMILES: Cc1sc2c(c1C)C(c1ccc(Cl)cc1)=N[C@@H](CC(=O)Nc1ccc(OCCOCCOCCOCCNc3cccc4c3C(=O)N(C3CCC(=O)NC3=O)C4=O)cc1)c1nnc(C)n1-2 (stereo partly drawn) [ARV-825, reference compound]
% of IKZF3 protein reduction based on densitometry values, IKZF3 Band I (IKZF3; 0.1 μM, 6 h): >25% (>25% for 26-74% of IKZF3 protein reduction)
% of IKZF3 protein reduction based on densitometry values, IKZF3 Band II (IKZF3; 0.1 μM, 6 h): >25% (>25% for 26-74% of IKZF3 protein reduction)
% of IKZF3 protein reduction based on densitometry values, IKZF3 Band I (IKZF3; 1 μM, 6 h): >25% (>25% for 26-74% of IKZF3 protein reduction)
% of IKZF3 protein reduction based on densitometry values, IKZF3 Band II (IKZF3; 1 μM, 6 h): >25% (>25% for 26-74% of IKZF3 protein reduction)
% of IKZF3 protein reduction based on densitometry values, IKZF3 Band I (IKZF3; 10 μM, 6 h): >25% (>25% for 26-74% of IKZF3 protein reduction)
% of IKZF3 protein reduction based on densitometry values, IKZF3 Band II (IKZF3; 10 μM, 6 h): >25% (>25% for 26-74% of IKZF3 protein reduction)
IKZF3 degradation (IKZF3; 6 h, 0.1-10 μM): ~60%
% of IKZF1 α protein reduction based on densitometry values (IKZF1; 0.1 μM, 6 h): >25% (>25% for 26-74% of IKZF1 protein reduction)
% of IKZF1 α protein reduction based on densitometry values (IKZF1; 1 μM, 6 h): >25% (>25% for 26-74% of IKZF1 protein reduction)
% of IKZF1 α protein reduction based on densitometry values (IKZF1; 10 μM, 6 h): >25% (>25% for 26-74% of IKZF1 protein reduction)
IKZF1 degradation (IKZF1; 6 h, 0.1-10 μM): ~50%

SMILES: Cc1nc2c(C(=O)NC3CCCC(=O)NC3=O)cccc2[nH]1 (stereo not drawn) [Compound 20, N-(2,7-dioxoazepan-3-yl)-2-methyl-1H-benzo[d]imidazole-4-carboxamide]
% of protein reduction based on densitometry values, IKZF 1 (24 H) (IKZF1): ≤25% (≤25% for 0-25% of IKZF1 protein reduction)
% of protein reduction based on densitometry values, CK1α (24 H) (CK1α): ≤25% (≤25% for 0-25% of CK1a protein reduction)
% of protein reduction based on densitometry values, SALL4 (24 H) (SALL4): ≤25% (≤25% for 0-25% of SALL4 protein reduction)

SMILES: N#Cc1nc2c(C(=O)NC3CCC(=O)NC3=O)cccc2[nH]1 (stereo not drawn) [Compound 22, 2-cyano-N-(2,6-dioxopiperidin-3-yl)-1H-benzo[d]imidazole-4-carboxamide]
Ki [1]: < 1 µM

SMILES: O=C1CCC(NC(=O)c2cccc3[nH]c(Cl)nc23)C(=O)N1 (stereo not drawn) [Compound 12, 2-chloro-N-(2,6-dioxopiperidin-3-yl)-1H-benzo[d]imidazole-4-carboxamide]
Ki [1]: < 1 µM

SMILES: Cn1cnc2cccc(C(=O)NC3CCC(=O)NC3=O)c21 (stereo not drawn) [Compound 5, N-(2,6-dioxopiperidin-3-yl)-1-methyl-1H-benzo[d]imidazole-7-carboxamide]
% of protein reduction based on densitometry values, IKZF 1 (24 H) (IKZF1): ≤25% (≤25% for 0-25% of IKZF1 protein reduction)
% of protein reduction based on densitometry values, CK1α (24 H) (CK1α): ≤25% (≤25% for 0-25% of CK1a protein reduction)
% of protein reduction based on densitometry values, SALL4 (24 H) (SALL4): ≤25% (≤25% for 0-25% of SALL4 protein reduction)

SMILES: CCCCCC(=O)Nc1cc(C(=O)NC2CCC(=O)NC2=O)c2c(c1)ncn2C (stereo not drawn) [Compound 6, N-(2,6-dioxopiperidin-3-yl)-5-hexanamido-1-methyl-1H-benzo[d]imidazole-7-carboxamide]
% of protein reduction based on densitometry values, IKZF 1 (24 H) (IKZF1): ≤25% (≤25% for 0-25% of IKZF1 protein reduction)
% of protein reduction based on densitometry values, CK1α (24 H) (CK1α): ≤25% (≤25% for 0-25% of CK1a protein reduction)
% of protein reduction based on densitometry values, SALL4 (24 H) (SALL4): ≤25% (≤25% for 0-25% of SALL4 protein reduction)

SMILES: O=C1CCC(NC(=O)c2nccc3[nH]cnc23)C(=O)N1 (stereo not drawn) [Compound 11, N-(2,6-dioxopiperidin-3-yl)-1H-imidazo[4,5-c]pyridine-4-carboxamide]
Ki [1]: 1 to 10 µM

Now from value to molecule, other results behind:

Ki [1]: 1 to 10 µM
SMILES: Cc1nc2c(C(=O)NC3CCC(=O)NC3=O)cccc2o1 (stereo not drawn) [Compound 51, N-(2,6-dioxopiperidin-3-yl)-2-methylbenzo[d]oxazole-4-carboxamide]

Ki [1]: 10 to 50 µM
SMILES: O=C1CCC(NC(=O)c2cccc3c(Br)n[nH]c23)C(=O)N1 (stereo not drawn) [Compound 42, 3-bromo-N-(2,6-dioxopiperidin-3-yl)-1H-indazole-7-carboxamide]

Ki [1]: 1 to 10 µM
SMILES: O=C1CCC(NC(=O)c2cc(Br)cc3cn[nH]c23)C(=O)N1 (stereo not drawn) [Compound 47, 5-bromo-N-(2,6-dioxopiperidin-3-yl)-1H-indazole-7-carboxamide]

Ki [1]: 1 to 10 µM
SMILES: Cc1cc2cccc(C(=O)NC3CCC(=O)NC3=O)c2s1 (stereo not drawn) [Compound 41, N-(2,6-dioxopiperidin-3-yl)-2-methylbenzo[b]thiophene-7-carboxamide]

Ki [1]: 1 to 10 µM
SMILES: O=C1CCC(NC(=O)c2csc3[nH]cnc23)C(=O)N1 (stereo not drawn) [Compound 60, N-(2,6-dioxopiperidin-3-yl)-1H-thieno[2,3-d]imidazole-6-carboxamide]

Ki [1]: 1 to 10 µM
SMILES: O=C1CCC(NC(=O)c2cccc3[nH]nnc23)C(=O)N1 (stereo not drawn) [Compound 55, N-(2,6-dioxopiperidin-3-yl)-1H-benzo[d][1,2,3]triazole-4-carboxamide]
% of IKZF3 protein reduction based on densitometry values, IKZF3 Band I (IKZF3; 10 μM, 24 h): ≤25% (≤25% for 0-25% of IKZF3 protein reduction)
% of IKZF3 protein reduction based on densitometry values, IKZF3 Band II (IKZF3; 10 μM, 24 h): ≤25% (≤25% for 0-25% of IKZF3 protein reduction)
% of IKZF3 protein reduction based on densitometry values, IKZF3 Band I (IKZF3; 20 μM, 24 h): ≤25% (≤25% for 0-25% of IKZF3 protein reduction)
% of IKZF3 protein reduction based on densitometry values, IKZF3 Band II (IKZF3; 20 μM, 24 h): ≤25% (≤25% for 0-25% of IKZF3 protein reduction)

Ki [1]: 1 to 10 µM
SMILES: Cc1sc2c(c1C)C(c1ccc(Cl)cc1)=N[C@@H](CC(=O)Nc1ccc(OCCOCCOCCNC(=O)CCc3nc4c(C(=O)NC5CCC(=O)NC5=O)cccc4[nH]3)cc1)c1nnc(C)n1-2 (stereo partly drawn) [Compound 63, 2-(3-((2-(2-(2-(4-(2-((S)-4-(4-chlorophenyl)-2,3,9-trimethyl-6H-thieno[3,2-f][1,2,4]triazolo[4,3-a][1,4]diazepin-6-yl)acetamido)phenoxy)ethoxy)ethoxy)ethyl)amino)-3-oxopropyl)-N-(2,6-dioxopiperidin-3-yl)-1H-benzo[d]imidazole-7-carboxamide]

Ki [1]: 1 to 10 µM
SMILES: Cc1nc2cccc(C(=O)NC3CCC(=O)NC3=O)c2s1 (stereo not drawn) [Compound 53, N-(2,6-dioxopiperidin-3-yl)-2-methylbenzo[d]thiazole-7-carboxamide]

Ki [1]: 1 to 10 µM
SMILES: Nc1ccc2cn[nH]c2c1C(=O)NC1CCC(=O)NC1=O (stereo not drawn) [Compound 48, 6-amino-N-(2,6-dioxopiperidin-3-yl)-1H-indazole-7-carboxamide]

Ki [1]: 1 to 10 µM
SMILES: Cc1nc2cccc(C(=O)NC3CCC(=O)NC3=O)c2o1 (stereo not drawn) [Compound 52, N-(2,6-dioxopiperidin-3-yl)-2-methylbenzo[d]oxazole-7-carboxamide]

Ki [1]: 1 to 10 µM
SMILES: Nc1ccc2[nH]c(C(F)(F)F)nc2c1C(=O)NC1CCC(=O)NC1=O (stereo not drawn) [Compound 26, 6-amino-N-(2,6-dioxopiperidin-3-yl)-2-(trifluoromethyl)-1H-1,3-benzodiazole-7-carboxamide]

Ki [1]: 1 to 10 µM
SMILES: O=C1CCC(NC(=O)c2ccnc3scnc23)C(=O)N1 (stereo not drawn) [Compound 54, N-(2,6-dioxopiperidin-3-yl)thiazolo[5,4-b]pyridine-7-carboxamide]

Ki [1]: 1 to 10 µM
SMILES: Cc1nc2c(C(=O)NC3CCC(=O)NC3=O)c(OCC(=O)NCCCCCCCCNC(=O)C[C@@H]3N=C(c4ccc(Cl)cc4)c4c(sc(C)c4C)-n4c(C)nnc43)ccc2[nH]1 (stereo partly drawn) [Compound 67, 6-(2-((8-(2-((S)-4-(4-chlorophenyl)-2,3,9-trimethyl-6H-thieno[3,2-f][1,2,4]triazolo[4,3-a][1,4]diazepin-6-yl)acetamido)octyl)amino)-2-oxoethoxy)-N-(2,6-dioxopiperidin-3-yl)-2-methyl-1H-benzo[d]imidazole-7-carboxamide]

Ki [1]: 1 to 10 µM
SMILES: O=C1CCC(NC(=O)c2cccc3c(-c4cccs4)n[nH]c23)C(=O)N1 (stereo not drawn) [Compound 43, N-(2,6-dioxopiperidin-3-yl)-3-(thiophen-2-yl)-1H-indazole-7-carboxamide]

Ki [1]: 10 to 50 µM
SMILES: O=C1CCC(NC(=O)c2cccc3nnsc23)C(=O)N1 (stereo not drawn) [Compound 58]
